{"source": "patent US20060241130A1", "about": "“Anti-inflammatory compositions and uses thereof” (priority 2003, published 2006)", "key": {"[1]": {"assay": "Control: effect of hydrogen peroxide on cromolyn sodium mesophases", "type": "physicochemical", "conditions": "hydrogen peroxide (30 percent), 8 hours at room temperature", "protocol": "(§1) Analysis of the effect of ozone on cromolyn sodium mesophases: Six solutions of cromolyn sodium in PBS (7-12 percent) were placed in narrow (5 mm) NMR tubes and ozone (10 percent in oxygen) was bubbled for 5 minutes through the solutions using a flexible Teflon tube. […] Control experiments were carried out with hydrogen peroxide (30 percent) and sodium hypochlorite."}, "[2]": {"assay": "Cromolyn sodium lyotropic mesophase formation (polarizing microscope)", "type": "physicochemical", "conditions": "phosphate buffered saline pH 7.4, 5 to 12 percent (w/w) tested", "protocol": "Preparation of cromolyn sodium lyotropic mesophases: Solutions of cromolyn sodium (white powder, Vitamed Inc., Israel) were dissolved in phosphate buffered saline [50 mM phosphate, 100 mM NaCl (pH 7.4)] at eight different concentrations between 5 and 12 percent (w/w)."}, "[3]": {"assay": "Control: effect of sodium hypochlorite on cromolyn sodium mesophases", "type": "physicochemical", "conditions": "any concentration of cromolyn sodium, 8 hours at room temperature", "protocol": "as §1"}, "[4]": {"assay": "Effect of ozone on cromolyn sodium mesophases", "type": "physicochemical", "conditions": "7-12 percent in PBS, ozone (10 percent in oxygen) bubbled for 5 minutes", "protocol": "as §1"}, "[5]": {"test_system": "asthmatic human patients", "assay": "Double-blind cross-over study in asthmatic children, adenosine bronchial provocation test", "type": "in vivo", "conditions": "about 80 ppm nightly for two weeks", "description": "Patients: Eleven patients were recruited from children to the pediatric pulmonary clinic, Rambam Medical Center, Haifa. Inclusion criteria: age: 6-11 years; diagnosis of asthma by ATS criteria; ability to perform spirometry consistently; asthma severity classified as “mild persistent” as per the GINA workshop report; no anti-inflammatory medication, including antihistamines, taken for at least 2 weeks prior to enrollment. Exclusion criteria: presence of other chronic conditions; emergency room visit in the past 3 months; respiratory infection in the past month; steroids or other anti-inflammatory medication taken within 2 weeks prior to treatment; and bronchodilators, theophylline preparations or monteleukast taken in the 24 hours prior to spirometry.\nStudy design: A double-blind cross-over study format was used to evaluate the effect of monoterpenes on asthma. The study included four phases, each lasting two weeks. Following enrollment, baseline spirometry was performed and inclusion/exclusion was verified. The patients then filled in a diary card for two weeks. […]\nAdenosine bronchial provocation test (BPT): Bronchial provocation tests were performed by inhalation of nebulized adenosine 5′-monophosphate (adenosine; Sigma chemical company, St. Louis, Mo., USA) solutions in doubling doses. […] The best of three efforts were recorded. […]"}, "[6]": {"test_system": "ovalbumin sensitized Brown Norway rats", "assay": "Asthma treatment model II: Penh (barometric plethysmography) after repeated OVA challenge", "type": "in vivo, rat", "conditions": "125 ppm in breathing atmosphere day 14 to day 21, measured day 21, 5 minutes after allergen challenge, mean ± standard error", "protocol": "(§2) Asthma treatment model II: Asthma was induced on day 0 in three experimental groups of 10 animals each, by sensitization with ovalbumin (OVA) and aluminum hydroxide, as previously described (Du et al., 1992. Am. Rev. Resp. Dis. 146:1037-1041). Sensitization to the model antigen ovalbumin (OVA) was carried out by subcutaneous injection of 1 mg OVA (Sigma, St. Louis, Mo.) and 200 mg of aluminum hydroxide (AlumInject; Pierce Chemical, Rockford, Ill.) in 0.9 percent (w/w) saline in a total volume of 1 ml, and intraperitoneal injection of 1 ml saline containing 6 billion heat killed Bordetella pertussis cells (Pasteur Marieux, France). A fourth group of 10 animals was not sensitized and was used as the naive control group. The three groups of sensitized rats as well as the group of naive animals were challenged every other day from day 14 until day 21 with repeated 10 minute long inhalations of OVA using an ultrasonic nebulizer inhaler (LS 230 Systam Villeneuve Sur Lot, France). Throughout the experiments, the rats were kept unrestrained in a 20 liters box."}, "[7]": {"test_system": "ovalbumin sensitized Brown Norway rats", "assay": "Asthma treatment model II: blinded histopathological scoring of lung sections (H&E)", "type": "in vivo, rat", "protocol": "as §2\nIn model II, all rats were anaesthetized on day 21 with pentothal and sacrificed by bleeding from the abdominal aorta. Lungs were removed and inflated with 4 percent buffered formaldehyde overlayed with 20 cm water. The lungs were sliced longitudinally and embedded in paraffin. Histologic sections 5 microns thick were cut and stained with hematoxylin and eosin. The morphological changes were evaluated by light microscopy by a pathologist who was blinded to the treatment groups. The intensity of the peribronchiolar and perivascular cellular infiltration was assessed semi-quantitatively on a 0-3 scale as follows: 0=no or practically no inflammatory cells; I=a narrow rim of inflammatory cells surrounding most of the bronchioles/blood vessels, best visualized under high power; 2=a rim of inflammatory cells 3-4 cells thick, surrounding most of the bronchioles/blood vessels; 3=a prominent rim of inflammatory cells, 5 or more cells thick, surrounding most of the bronchioles/blood vessels. Bronchiolar constriction was also assessed on a semi-quantitative scale ranging over 0-3 grades (0=none; 1=mild; 2=moderate; 3=marked). The histologic sections included bronchioles (defined as airways lined by mucosa and lacking cartilage) and distal airways (alveolar ducts and sacs). The features examined included peribronchiolar and perivascular inflammation, morphological evidence of bronchoconstriction (papillary infolding of the bronchiolar mucosa) and granulomatous response in the pulmonary parenchyma."}, "[8]": {"conditions": "0-3 scale, 125 ppm inhalation day 14-21, OVA sensitized, OVA challenged rats"}, "[9]": {"conditions": "H&E, representative treated rat"}}}
{"smiles": "O=C(O)c1cc(=O)c2c(OCC(O)COc3cccc4oc(C(=O)O)cc(=O)c34)cccc2o1", "note": "[cromolyn sodium]", "values": [{"measurement": "birefringence after hydrogen peroxide, 7 and 8 percent cromolyn sodium", "setting": "[1]", "result": "loss of birefringence was observed"}, {"measurement": "birefringence after hydrogen peroxide, more concentrated cromolyn sodium", "setting": "[1]", "result": "No effect"}, {"measurement": "minimal concentration that exhibited birefringence", "setting": "[2]", "result": 6, "unit": "%"}, {"measurement": "birefringence after hypochlorite", "setting": "[3]", "result": "No effect"}, {"measurement": "birefringence after ozone", "setting": "[4]", "result": "Loss of birefringence in all tubes"}, {"measurement": "conversion to oxidized products (1H-NMR)", "setting": "[4]", "result": "complete conversion"}]}
{"smiles": "C=C(C)[C@H]1CC=C(C)CC1", "note": "[limonene, d-limonene]", "values": [{"measurement": "improvement in severely asthmatic patients as compared to moderately asthmatic patients", "setting": "[5]; adenosine challenge", "result": "approximately one order of magnitude improvement"}, {"measurement": "asthmatics with asthmatic stress significantly and specifically relieved (adenosine challenge)", "setting": "[5]; children 6-11 years, compared to cineole negative control", "result": "6/11"}]}
{"smiles": "CC12CCC(CC1)C(C)(C)O2", "note": "[eucalyptol]", "values": [{"measurement": "Penh values", "setting": "[6]", "result": "2.25±0.12"}, {"measurement": "morphological evidence of bronchoconstriction score", "setting": "[7]; 0-3 grades, 125 ppm inhalation day 14-21, OVA sensitized, OVA challenged rats", "result": "2.3±0.21"}, {"measurement": "peribronchial inflammatory cell infiltration score", "setting": "[7]; [8]", "result": "2.2±0.29"}, {"measurement": "perivascular inflammatory cell infiltration score", "setting": "[7]; [8]", "result": "2.5±0.27"}, {"measurement": "granulomas (granulomatous response) score", "setting": "[7]; 125 ppm inhalation day 14-21, OVA sensitized, OVA challenged rats", "result": "1.8±0.42"}, {"measurement": "morphologic bronchoconstriction in representative lung section (FIG. 12)", "setting": "[7]; [9]", "result": "shows morphologic evidence of bronchoconstriction"}, {"measurement": "peribronchiolar inflammation in representative lung section (FIG. 12)", "setting": "[7]; [9]", "result": "peribronchiolar inflammation and a lymphoid follicle"}]}
